# Measured values reported in patent US20250179052A1, “PYRIMIDINYL-OXY-QUINOLINE BASED HERBICIDAL COMPOUNDS” (SYNGENTA CROP PROTECTION AG, priority 2022, published 2025).
# Columns and labels:
# Conditions in all cases: 250 g/ha, evaluated after 13 days, five-point scale
# [1] = tested on: Echinochloa crus-galli (ECHCG); assay: Post-emergence herbicidal glasshouse test; type: in vivo
# [2] = tested on: Ipomoea hederacea (IPOHE); assay: Pre-emergence herbicidal glasshouse test; type: in vivo
# [3] = tested on: Echinochloa crus-galli (ECHCG); assay: Pre-emergence herbicidal glasshouse test; type: in vivo
# [4] = tested on: Amaranthus retoflexus (AMARE); assay: Post-emergence herbicidal glasshouse test; type: in vivo
# [5] = tested on: Amaranthus retoflexus (AMARE); assay: Pre-emergence herbicidal glasshouse test; type: in vivo
# [6] = tested on: AMAPA; assay: Pre-emergence herbicidal glasshouse test; type: in vivo, Amaranthus tuberculatus
# [7] = tested on: Ipomoea hederacea (IPOHE); assay: Post-emergence herbicidal glasshouse test; type: in vivo
# [8] = tested on: AMAPA; assay: Post-emergence herbicidal glasshouse test; type: in vivo, Amaranthus tuberculatus
SMILES,"percentage damage caused to the plant, ECHCG [1]","percentage damage caused to the plant, IPOHE [2]","percentage damage caused to the plant, ECHCG [3]","percentage damage caused to the plant, AMARE [4]","percentage damage caused to the plant, AMARE [5]","percentage damage caused to the plant, AMAPA [6]","percentage damage caused to the plant, IPOHE [7]","percentage damage caused to the plant, AMAPA [8]"
FC(F)(F)c1ncc2c(Oc3ncc(C4CC4)cn3)cccc2n1 [Compound 1.012],1 (1=0-20%),1 (1=0-20%),1 (1=0-20%),1 (1=0-20%),1 (1=0-20%),1 (1=0-20%),1 (1=0-20%),1 (1=0-20%)
Cc1ccc(Oc2ncc(Br)cn2)c2cnc(C(F)F)nc12 [Compound 1.023],1 (1=0-20%),1 (1=0-20%),1 (1=0-20%),2 (2=21-40%),2 (2=21-40%),1 (1=0-20%),1 (1=0-20%),3 (3=41-60%)
COc1nc(C)c2c(Oc3ncc(Cl)cn3)cccc2n1 [Compound 1.024],1 (1=0-20%),1 (1=0-20%),1 (1=0-20%),1 (1=0-20%),3 (3=41-60%),3 (3=41-60%),1 (1=0-20%),2 (2=21-40%)
Cc1cnc(Oc2ccc(C)c3nc(C(F)(F)F)ccc23)nc1 [Compound 1.025],1 (1=0-20%),1 (1=0-20%),1 (1=0-20%),2 (2=21-40%),1 (1=0-20%),1 (1=0-20%),2 (2=21-40%),3 (3=41-60%)
Cc1ccc(Oc2ncc(Br)cn2)c2ccc(C(F)(F)F)nc12 [Compound 1.026],1 (1=0-20%),1 (1=0-20%),1 (1=0-20%),2 (2=21-40%),1 (1=0-20%),1 (1=0-20%),1 (1=0-20%),2 (2=21-40%)
Cc1ccc(Oc2ncc(F)cn2)c2cnc(C(F)F)nc12 [Compound 1.027],1 (1=0-20%),1 (1=0-20%),1 (1=0-20%),2 (2=21-40%),2 (2=21-40%),2 (2=21-40%),2 (2=21-40%),2 (2=21-40%)
Cc1ccc(Oc2ncc(Cl)cn2)c2cnc(C(F)(F)F)nc12 [Compound 1.028],1 (1=0-20%),1 (1=0-20%),2 (2=21-40%),2 (2=21-40%),5 (5=81-100%),5 (5=81-100%),2 (2=21-40%),3 (3=41-60%)
Cc1ccc(Oc2ncc(F)cn2)c2ccc(C(F)(F)F)nc12 [Compound 1.029],1 (1=0-20%),1 (1=0-20%),1 (1=0-20%),3 (3=41-60%),2 (2=21-40%),3 (3=41-60%),2 (2=21-40%),4 (4=61-80%)
COc1ncc2c(Oc3ncc(F)cn3)ccc(Br)c2n1 [Compound 1.030],1 (1=0-20%),1 (1=0-20%),1 (1=0-20%),2 (2=21-40%),1 (1=0-20%),1 (1=0-20%),1 (1=0-20%),3 (3=41-60%)
COc1ncc2c(Oc3ncc(Br)cn3)ccc(Br)c2n1 [Compound 1.031],1 (1=0-20%),1 (1=0-20%),1 (1=0-20%),1 (1=0-20%),1 (1=0-20%),1 (1=0-20%),1 (1=0-20%),1 (1=0-20%)
FC(F)(F)c1ccc2c(Oc3ncc(Cl)cn3)ccc(Br)c2n1 [Compound 1.032],1 (1=0-20%),1 (1=0-20%),1 (1=0-20%),2 (2=21-40%),1 (1=0-20%),1 (1=0-20%),1 (1=0-20%),2 (2=21-40%)
Fc1cnc(Oc2ccc(Br)c3nc(C(F)(F)F)ccc23)nc1 [Compound 1.033],1 (1=0-20%),1 (1=0-20%),1 (1=0-20%),2 (2=21-40%),3 (3=41-60%),3 (3=41-60%),1 (1=0-20%),1 (1=0-20%)
FC(F)(F)c1ccc2c(Oc3ncc(Br)cn3)ccc(Br)c2n1 [Compound 1.034],1 (1=0-20%),1 (1=0-20%),1 (1=0-20%),1 (1=0-20%),1 (1=0-20%),1 (1=0-20%),1 (1=0-20%),1 (1=0-20%)
Cc1ccc(Oc2ncc(Cl)cn2)c2ccc(C(F)(F)F)nc12 [Compound 1.035],1 (1=0-20%),1 (1=0-20%),1 (1=0-20%),3 (3=41-60%),2 (2=21-40%),2 (2=21-40%),2 (2=21-40%),3 (3=41-60%)
Cc1cnc(Oc2ccc(C)c3nc(C(F)(F)Cl)ncc23)nc1 [Compound 1.036],1 (1=0-20%),1 (1=0-20%),1 (1=0-20%),2 (2=21-40%),4 (4=61-80%),3 (3=41-60%),1 (1=0-20%),3 (3=41-60%)
Cc1cnc(Oc2ccc(Cl)c3nc(C(F)(F)Cl)ncc23)nc1 [Compound 1.037],1 (1=0-20%),1 (1=0-20%),1 (1=0-20%),2 (2=21-40%),5 (5=81-100%),4 (4=61-80%),1 (1=0-20%),2 (2=21-40%)
Cc1nc(C(F)(F)Cl)nc2cccc(Oc3ncc(F)cn3)c12 [Compound 1.038],3 (3=41-60%),5 (5=81-100%),4 (4=61-80%),4 (4=61-80%),5 (5=81-100%),5 (5=81-100%),3 (3=41-60%),5 (5=81-100%)
FC(F)c1ncc2c(Oc3ncc(Br)cn3)ccc(Cl)c2n1 [Compound 1.039],1 (1=0-20%),1 (1=0-20%),1 (1=0-20%),2 (2=21-40%),1 (1=0-20%),1 (1=0-20%),1 (1=0-20%),2 (2=21-40%)
Cc1ccc(Oc2ncc(Cl)cn2)c2cnc(C(F)(F)Cl)nc12 [Compound 1.048],1 (1=0-20%),1 (1=0-20%),1 (1=0-20%),2 (2=21-40%),,1 (1=0-20%),1 (1=0-20%),2 (2=21-40%)
Cc1nc(C(F)F)nc2cccc(Oc3ncc(Cl)cn3)c12 [Compound 1.067],1 (1=0-20%),2 (2=21-40%),1 (1=0-20%),4 (4=61-80%),,3 (3=41-60%),3 (3=41-60%),4 (4=61-80%)
